PMC7773657, “Identification of Compounds With Glucocorticoid Sparing Effects on Suppression of Chemokine and Cytokine Production by Rheumatoid Arthritis Fibroblast-Like Synoviocytes” (Frontiers in Pharmacology, 2020)

What was measured:
THP-1 cells = test: TNF stimulated CXCL8 release by THP-1 cells (ELISA); format: cell-based; settings: Homo sapiens, TNF 2 ng/ml, overnight, single agents (Figure 5A), read-out: IC50 for TNF stimulated CXCL8 release (titration experiment with DEX)
Experimental: THP-1 cells (10^5 cells/200 µL/well) and RA FLS (10^4/200 µL/well) were plated in 96 well plates and pre-treated with compound or vehicle for 1 h and then stimulated with either LPS (10 ng/ml), IL-1ß (2 ng/ml) or TNF (2 ng/ml for THP-1 and 1 ng/ml for RA FLS). After 18 h of incubation, supernatants were collected and the levels of cytokines and chemokines in the culture supernatants were measured by ELISA according to the manufacturer’s protocols (R&D systems, Minneapolis, MN).
Drug synergy analysis was performed using Isobologram plots which were calculated according to reported procedures using methods of Chou-Talalay ([Chou and Talalay, 1984]) to compute IC50 and determine synergism. IC50 is computed from the median effect equation. Synergism analysis is carried out using the Combination index (CI)-isobol method. Data analysis was performed using the CompuSyn software available on combisyn.com. Detailed methodology was used as described in a prior report ([Chou, 2006]). […] This is followed by CI-isobol method to quantitatively assess the synergism between these inhibitor drugs. […] From the median effect equation, the estimated dose (i.e., D) necessary to produce the inhibition (i.e. Fa, Fu) obtained by the combination was calculated. […]

NF-κB = NF-κB activation assay in LPS stimulated CellSensor NF-κB-bla THP-1 reporter cells (FRET); format: cell-based, human; settings: THP-1 CellSensor NF-κB-bla reporter cells, LPS 10 ng/ml, 5 h and 16 h
Experimental: The CellSensor® NF-κB-bla THP-1 cell line has a stably integrated ß-lactamase reporter gene under the control of the nuclear factor kappa B (NF-κB) response element. […] In the presence of ß-lactamase, CCF4 was enzymatically cleaved and excitation at 409 nm produced a blue fluorescence signal (at 450 nm). The CellSensor® NF-κB-bla THP-1 cells were dispersed in 96-well plates (5 × 10^4 cells/200 µL/well) and incubated for 4 h. […] After incubation, the ß-lactamase substrate mixture (prepared according to the manufacturer’s protocol) was added to each well. Plates were incubated at room temperature in the dark for 2 h. Fluorescence was measured on a Tecan Infinite M200 plate reader (Tecan, Mannedorf, Switzerland) at an excitation wavelength of 405 nm and emission wavelengths of 465 and 535 nm. Emission ratios are calculated by dividing values from emission wavelength of 465 nm by those from emission wavelength of 535 nm. The response ratio was calculated as follows [(emission ratio of a test well)/average emission ratio of wells with vehicle (0.5% DMSO)] and values were normalized to the LPS control treated wells [response ratio of the compound/response ratio of LPS].

Structure (SMILES) | IC50 (THP-1 cells) [nM] | Inhibition of LPS induced NF-κB activity (NF-κB)
C[C@@H]1C[C@H]2[C@@H]3CCC4=CC(=O)C=C[C@]4(C)[C@@]3(F)[C@@H](O)C[C@]2(C)[C@@]1(O)C(=O)CO [DEX, dexamethasone] | 300 | inhibited NF-κB activity more potently at 16 h than 5 h
NC(=O)Nc1sc(-c2ccc(F)cc2)cc1C(N)=O [UTC, 5-(4-fluorophenyl)-2-ureidothiophene-3 carboxylic acid amide] |  | inhibited NF-κB activity at both time points
